Assay results from patent US11401306B2, “HPV16 non HLA-restricted t-cell vaccines, compositions and methods of use thereof” (priority 2016, dated 2022).
No end group written: not given here.

Key:
[1] = test system: HPV-specific T-cell response (splenocytes); assay: IFN-g ELISPOT on splenocytes of vaccinated humanized HLA-A2 transgenic mice; assay type: in vivo; conditions: for Immune Response, Method: ELISPOT: HLA-A2 humanized transgenic mice, IFN-gamma ELISPOT
Source text: (§1) Sequence selection was accomplished herein using both tumor regression studies in C57/B6 mice, and interferon-gamma ELISPOT studies in HLA-A2 humanized transgenic mice. […] In the HLA-A2 mouse model ELISPOT study, at least 20 spots per million splenocytes was regarded to be a positive response.
This example highlights the approach to evaluating T-cell responses using ELISPOT studies in humanized HLA-A2 transgenic mice. In these studies, the vaccine contained the selected peptide at a concentration of 0.1-3.0 mg/mL and cationic liposomes when used, at a concentration of 0.2-3.0 mg/mL. Humanized HLA-A2 transgenic mice having components of the human immune system capable of recognizing human antigens were vaccinated on day 0 and day 7 with 100 uL of the vaccine. On day 14 the mice were sacrificed and HPV-specific immune response evaluated by interferon-gamma ELISPOT using standard approaches with the splecocytes from the mice (4-8 per group). The splenocytes were stimulated with the specified CD8+ T-cell epitope peptides or the long multi-epitope peptides specified in Table 2. The number of IFN-g spots per million cells is listed for the specified examples. […] The ability of the humanized transgenic mice to successfully generate a T-cell immune response (>20 spots) when stimulated with each of the long multi-epitope peptides as well as short single epitope peptides confirms that the selected peptides are effectively processed and presented to T-cells. In these studies, un-stimulated splenocytes and splenocytes stimulated with irrelevant peptides were both used together as negative controls in every assay. For the positive control in the assay ConA was used.
The present study was performed to evaluate the effect of chemical modification of select peptides on immunogenicity and their ability to be processed, presented and to prime human CD8+ HPV-specific T-cell responses. Peptides corresponding to SEQ ID NO: 23 and 25 contain cysteines which upon oxidation lead to the formation of dimers and other multimers. Two vaccine formulations were prepared containing peptides corresponding to SEQ ID NO: 23 and 25.
In Formulation A: Both peptides were monomeric with high purity confirmed by HPLC analysis. The vaccine contained 1.5-1.6 mg/mL of each peptide.
In Formulation B: Significant oxidation and multimer formation of both peptides was confirmed by HPLC analysis.
Both formulations were mixed 1:1 with 5.8 mg/mL of R-DOTAP prior to vaccination.
The immunogenicity of the peptides was compared as described in the above examples in 10 HLA-A2 mice per formulation by evaluating the ability to induce CD8+ T-cells. ELISPOT studies were performed as described above.

TC-1 tumor = TC-1 tumor regression screening of peptides in C57/B6 mice; assay type: in vivo; design: key: Positive: a positive T-cell response was a T-cell response that resulted in regression of the tumor; conditions: TC-1 tumors in C57/B6 mice, vaccinated day 7, peptide alone or with cationic lipid
Source text: as §1
This example illustrates the evaluation or screening of several HPV16 E7 peptides in the TC-1 mouse tumor regression model for their effective processing and presentation of the key epitopes leading to HPV-specific T-cell induction and subsequent tumor regression.
In the tumor regression screening studies mice were implanted with 100,000 TC-1 cells on day 0. On day 7, once the tumors were well established the mice were vaccinated with the specific peptide sequences, either formulated alone or in combination with cationic lipids such as DOTMA, DOEPC or R-DOTAP to facilitate up-take and presentation. In these studies, the vaccine contained the selected peptide at a concentration of 0.1-3.0 mg/mL and cationic liposomes at a concentration of 0.2-3.0 mg/mL. In the cases where the peptide sequences were lipidated by attaching a palmitoyl chain, the peptides were simply mixed with the cationic liposomes prior to vaccination. In the case of the non-lipidated peptides, the liposomes were made and peptides encapsulated by traditional thin film liposome preparation methods (F Szoka, and D Papahadjopoulos, Comparative Properties and Methods of Preparation of Lipid Vesicles (Liposomes), Annual Review of Biophysics and Bioengineering, Vol. 9:467-508, 1980). Other methods well known to those skilled in the art may also have been used.
A sample tumor regression plot showing results for peptides corresponding to SEQ ID NO: 1 (blank square), SEQ ID NOS: 7, 8, 31 32 and 31 (solid black circle), SEQ ID NO: 7 (blank circle), and SEQ ID NO: 8 (solid black triangle) is shown in FIG. 3.

[2] = splenocytes stimulated with YMLDLQPETT (SEQ ID NO: 14)
[3] = splenocytes stimulated with TIHDIILECV (SEQ ID NO: 21)
[4] = splenocytes stimulated with LLMGTLGIV (SEQ ID NO: 15)
[5] = splenocytes stimulated with TLGIVCPIC (SEQ ID NO: 22)

Molecule	Immune Response, Method: ELISPOT [1]	Immune Response, Method: tumor regression (TC-1 tumor)	other results
CSCC[C@H](NC(=O)[C@@H](N)Cc1ccc(O)cc1)C(=O)N[C@@H](CC(C)C)C(=O)N[C@@H](CC(=O)O)C(=O)N[C@@H](CC(C)C)C(=O)N[C@@H](CCC(N)=O)C(=O)N1CCC[C@H]1C(=O)N[C@@H](CCC(=O)O)C(=O)N[C@H](C(=O)N[C@H](C(=O)O)[C@@H](C)O)[C@@H](C)O [SEQ ID NO: 14]	Positive, ELISPOT (at least 20 spots per million splenocytes was regarded to be a positive response)		ELISPOT result Av spots/10^6 cells [1, 2]: 580 spots/10^6 cells
CC[C@H](C)[C@H](NC(=O)CNC(=O)[C@H](CC(C)C)NC(=O)[C@@H](NC(=O)CNC(=O)[C@H](CCSC)NC(=O)[C@H](CC(C)C)NC(=O)[C@@H](N)CC(C)C)[C@@H](C)O)C(=O)N[C@H](C(=O)O)C(C)C [SEQ ID NO: 15]	Positive, ELISPOT (at least 20 spots per million splenocytes was regarded to be a positive response)		
CC[C@H](C)[C@H](NC(=O)CNC(=O)[C@H](CC(C)C)NC(=O)[C@@H](N)[C@@H](C)O)C(=O)N[C@H](C(=O)N[C@@H](CS)C(=O)N1CCC[C@H]1C(=O)N[C@H](C(=O)N[C@@H](CS)C(=O)O)[C@@H](C)CC)C(C)C [SEQ ID NO: 22]	Positive, ELISPOT (at least 20 spots per million splenocytes was regarded to be a positive response)		
CDSTLRLCVQ STHVDIRT (CDSTLRLCVQSTHVDIRT) [SEQ ID NO: 32, E7 61-78 peptide]		Positive, tumor	
DRAHYNIVTF [SEQ ID NO: 2, HPV16 E7 48-57 peptide]		Negative, tumor regression	
ELQTTIHDIILECVYCKQQLL [SEQ ID NO: 11, HPV16 E6 25-45 peptide]	Positive, ELISPOT (at least 20 spots per million splenocytes was regarded to be a positive response)		ELISPOT result Av spots/10^6 cells [1, 3]: 262 spots/10^6 cells
EPDRAHYNIVTFCCKCDS [SEQ ID NO: 8, HPV16 E7 46-63 peptide]		Negative, tumor regression	
GQAEPDRAHYNIVTF [SEQ ID NO: 5, HPV16 E7 43-57 peptide]		Positive, tumor regression	
KFYSKISEYRHCYYSLYGTTL [SEQ ID NO: 12, printed as E7 75-95 peptide]	Negative, ELISPOT		ELISPOT result Av spots/10^6 cells ([1]; splenocytes stimulated with KISEYRHCY (SEQ ID NO: 30)): 15 spots/10^6 cells
KSS GQAEPDRAHYNIVTF (KSSGQAEPDRAHYNIVTF) [SEQ ID NO: 6, HPV16 E7 43-57 peptide with KSS]		Negative, tumor regression	
KSS RAHYNIVTF (KSSRAHYNIVTF) [SEQ ID NO: 4, HPV16 E7 49-57 peptide with KSS]		Positive, tumor regression	
LLMGTLGIVCPICSQKP [SEQ ID NO: 10, HPV16 E7 82-98 peptide]	Positive, ELISPOT (at least 20 spots per million splenocytes was regarded to be a positive response)		ELISPOT result Av spots/10^6 cells [1, 4]: 1 spots/10^6 cells; ELISPOT result Av spots/10^6 cells [1, 5]: 27 spots/10^6 cells
MHGDTPTLHEYMLDLQPETT [SEQ ID NO: 9]	Positive, EISPOT (at least 20 spots per million splenocytes was regarded to be a positive response)		ELISPOT result Av spots/10^6 cells [1, 2]: 235 spots/10^6 cells
PAGQAEPDRAHYNIVTFC [SEQ ID NO: 7, HPV16 E7 41-58 peptide]		Positive, tumor regression	
PalmKSS ELQTTIHDIILECVYCKQQLL [SEQ ID NO: 23]	Positive, ELISPOT (at least 20 spots per million splenocytes was regarded to be a positive response)		ELISPOT result Av spots/10^6 cells ([1]; Formulation A (monomeric peptides SEQ ID NO: 23 and 25, with R-DOTAP), stimulated with TIHDIILECV (SEQ ID NO: 21)): 314 spots/10^6 cells; ELISPOT result Av spots/10^6 cells ([1]; Formulation B (oxidized, multimer peptides SEQ ID NO: 23 and 25, with R-DOTAP), stimulated with TIHDIILECV (SEQ ID NO: 21)): 158 spots/10^6 cells; ELISPOT result Av spots/10^6 cells ([1]; splenocytes stimulated with ELQTTIHDIILECVYCKQQLL (SEQID NO: 13)): 8 spots/10^6 cells; ELISPOT result Av spots/10^6 cells [1, 3]: 612 spots/10^6 cells
PalmKSS LLMGTLGIV [SEQ ID NO: 28]	Positive, ELISPOT (at least 20 spots per million splenocytes was regarded to be a positive response)		ELISPOT result Av spots/10^6 cells [1, 4]: 96 spots/10^6 cells
PalmKSS LLMGTLGIVCPICSQKP [SEQ ID NO: 25]	Positive, ELISPOT (at least 20 spots per million splenocytes was regarded to be a positive response)		ELISPOT result Av spots/10^6 cells ([1]; Formulation A (monomeric peptides SEQ ID NO: 23 and 25, with R-DOTAP), stimulated with LLMGTLGIV (SEQ ID NO: 15)): 52 spots/10^6 cells; ELISPOT result Av spots/10^6 cells ([1]; Formulation B (oxidized, multimer peptides SEQ ID NO: 23 and 25, with R-DOTAP), stimulated with LLMGTLGIV (SEQ ID NO: 15)): 48 spots/10^6 cells; ELISPOT result Av spots/10^6 cells [1, 4]: 5 spots/10^6 cells; ELISPOT result Av spots/10^6 cells ([1]; splenocytes stimulated with LLMGTLGIVCPICSQKP (SEQ ID NO: 10)): 92 spots/10^6 cells; ELISPOT result Av spots/10^6 cells [1, 5]: 31 spots/10^6 cells
PalmKSS MHGDTPTLHEYMLDLQPETT [SEQ ID NO: 24]	Positive, ELISPOT (at least 20 spots per million splenocytes was regarded to be a positive response)		ELISPOT result Av spots/10^6 cells ([1]; splenocytes stimulated with MHGDTPTLHEYMLDLQPETT (SEQ ID NO: 9)): 284 spots/10^6 cells; ELISPOT result Av spots/10^6 cells [1, 2]: 79 spots/10^6 cells
PalmKSS RAHYNIVTF [SEQ ID NO: 3]		Positive, tumor regression	
PalmKSS YMLDLQPETT [SEQ ID NO: 27]	Positive, ELISPOT (at least 20 spots per million splenocytes was regarded to be a positive response)		ELISPOT result Av spots/10^6 cells [1, 2]: 280 spots/10^6 cells
QQLLRREVYDFAFRDLCIVYR [SEQ ID NO: 13, printed as E7 42-62 peptide]	Negative, ELISPOT		ELISPOT result Av spots/10^6 cells ([1]; splenocytes stimulated with FAFRDLCIV (SEQ ID NO: 29)): 6 spots/10^6 cells
RAHYNIVTF [SEQ ID NO: 1]		Positive, tumor regression	
TIHDIILECV [SEQ ID NO: 21, printed as E7 29-38 peptide]	Positive, ELISPOT (at least 20 spots per million splenocytes was regarded to be a positive response)		
